Results reported in patent US11021457B2, “Class of isoindolone-imide ring-1,3-dione-2-ene compounds, composition and use thereof” (WIGEN BIOMEDICINE TECHNOLOGY (SHANGHAI) CO., LTD., priority 2017, dated 2021).

tested on: SU-DHL6; assay: Inhibition of tumor cell proliferation, CellTiter-Glo, SU-DHL6; assay type: cell-based; conditions: Homo sapiens, SU-DHL-6; compound concentration 50 μM, 72 hours; read-out: Inhibitory activity against proliferation (cell survival rate) SU-DHL6
Method in brief: (§1)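 Cells seeded at 2000-10000 per well, treated immediately (suspension) or after adherence (adherent) and cultured at 37° C, 5% CO2. Viability read by CellTiter-Glo at 72 h as blank-corrected survival rate vs control. Scored at 50 μM compound: survival 60-<90% +, >30-60% ++, ≤30% +++.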

Row | Compound | cell survival rate (% of control) at 50 µM
1 | O=C1CCC(N2Cc3c(NC=C4C(=O)CC(c5nccs5)CC4=O)cccc3C2=O)C(=O)N1 (stereo not drawn) [Compound 111] | ≤ 30%

same assay, conditions: compound concentration 50 μM, 72 hours

Row | Compound | Inhibitory activity against proliferation (cell survival rate) SU-DHL6
2 | O=C1CCC(N2C(=O)c3cccc(NC(=O)OCOC(=O)/C=C/C(=O)N4CCN(CCNC=C5C(=O)CC(c6ccccc6)CC5=O)CC4)c3C2=O)C(=O)N1 (stereo not drawn) [Compound 86] | + (60≤survival rate (%)<90)
3 | O=C1CCC(N2Cc3c(NC(=O)OCCOCCN4CCN(CCNC=C5C(=O)CC(c6ccccc6)CC5=O)CC4)cccc3C2=O)C(=O)N1 (stereo not drawn) [Compound 87] | +++ (survival rate (%)≤30)
4 | O=C1CCC(N2Cc3c(NC(=O)CCC(=O)N4CCN(CCNC=C5C(=O)CC(c6ccccc6)CC5=O)CC4)cccc3C2=O)C(=O)N1 (stereo not drawn) [Compound 91] | ++ (30<survival rate (%)≤60)
5 | O=C1CCC(N2Cc3c(NC(=O)c4ccc(CN5CCN(CCNC=C6C(=O)CC(c7ccccc7)CC6=O)CC5)cc4)cccc3C2=O)C(=O)N1 (stereo not drawn) [Compound 92] | +++ (survival rate (%)≤30)
6 | O=C(/C=C\CN1CCN(CCNC=C2C(=O)CC(c3ccccc3)CC2=O)CC1)Nc1cccc2c1CN(C1CCC(=O)NC1=O)C2=O (stereo not drawn) [Compound 93] | +++ (survival rate (%)≤30)
7 | O=C1CCC(N2C(=O)c3cccc(NC(=O)c4ccc(CN5CCN(CCNC=C6C(=O)CC(c7ccccc7)CC6=O)CC5)cc4)c3C2=O)C(=O)N1 (stereo not drawn) [Compound 94] | +++ (survival rate (%)≤30)
8 | Nc1cccc2c1CN(C1CCC(=O)N(C(=O)N3CCN(CCNC=C4C(=O)CC(c5ccccc5)CC4=O)CC3)C1=O)C2=O (stereo not drawn) [Compound 100] | ++ (30<survival rate (%)≤60)

tested on: RPMI-8226; assay: Inhibition of tumor cell proliferation, CellTiter-Glo, RPMI-8226; assay type: cell-based; conditions: Homo sapiens, RPMI-8226; compound concentration 50 μM, 72 hours; read-out: Inhibitory activity against proliferation (cell survival rate) RPMI-8226
Method in brief: as §1

Row | Compound | cell survival rate (% of control) at 50 µM
9 | O=C1CCC(N2Cc3c(NC=C4C(=O)CC(c5nccs5)CC4=O)cccc3C2=O)C(=O)N1 (stereo not drawn) [Compound 111] | ≤ 30%

same assay, conditions: compound concentration 50 μM, 72 hours

Row | Compound | Inhibitory activity against proliferation (cell survival rate) RPMI-8226
10 | O=C1CCC(N2C(=O)c3cccc(NC(=O)OCOC(=O)/C=C/C(=O)N4CCN(CCNC=C5C(=O)CC(c6ccccc6)CC5=O)CC4)c3C2=O)C(=O)N1 (stereo not drawn) [Compound 86] | + (60≤survival rate (%)<90)
11 | O=C1CCC(N2Cc3c(NC(=O)OCCOCCN4CCN(CCNC=C5C(=O)CC(c6ccccc6)CC5=O)CC4)cccc3C2=O)C(=O)N1 (stereo not drawn) [Compound 87] | +++ (survival rate (%)≤30)
12 | O=C1CCC(N2Cc3c(NC(=O)CCC(=O)N4CCN(CCNC=C5C(=O)CC(c6ccccc6)CC5=O)CC4)cccc3C2=O)C(=O)N1 (stereo not drawn) [Compound 91] | ++ (30<survival rate (%)≤60)
13 | O=C1CCC(N2Cc3c(NC(=O)c4ccc(CN5CCN(CCNC=C6C(=O)CC(c7ccccc7)CC6=O)CC5)cc4)cccc3C2=O)C(=O)N1 (stereo not drawn) [Compound 92] | +++ (survival rate (%)≤30)
14 | O=C(/C=C\CN1CCN(CCNC=C2C(=O)CC(c3ccccc3)CC2=O)CC1)Nc1cccc2c1CN(C1CCC(=O)NC1=O)C2=O (stereo not drawn) [Compound 93] | +++ (survival rate (%)≤30)
15 | O=C1CCC(N2C(=O)c3cccc(NC(=O)c4ccc(CN5CCN(CCNC=C6C(=O)CC(c7ccccc7)CC6=O)CC5)cc4)c3C2=O)C(=O)N1 (stereo not drawn) [Compound 94] | +++ (survival rate (%)≤30)
16 | Nc1cccc2c1CN(C1CCC(=O)N(C(=O)N3CCN(CCNC=C4C(=O)CC(c5ccccc5)CC4=O)CC3)C1=O)C2=O (stereo not drawn) [Compound 100] | + (60≤survival rate (%)<90)

tested on: K562; assay: Inhibition of tumor cell proliferation, CellTiter-Glo, K562; assay type: cell-based; conditions: Homo sapiens, K562; compound concentration 50 μM, 72 hours; read-out: Inhibitory activity against proliferation (cell survival rate) K562
Method in brief: as §1

Row | Compound | cell survival rate (%) at 50 µM
17 | O=C1CCC(N2Cc3c(NC=C4C(=O)CC(c5nccs5)CC4=O)cccc3C2=O)C(=O)N1 (stereo not drawn) [Compound 111] | ≤ 30%

same assay, conditions: compound concentration 50 μM, 72 hours

Row | Compound | Inhibitory activity against proliferation (cell survival rate) K562
18 | O=C1CCC(N2C(=O)c3cccc(NC(=O)OCOC(=O)/C=C/C(=O)N4CCN(CCNC=C5C(=O)CC(c6ccccc6)CC5=O)CC4)c3C2=O)C(=O)N1 (stereo not drawn) [Compound 86] | +++ (survival rate (%)≤30)
19 | O=C1CCC(N2Cc3c(NC(=O)OCCOCCN4CCN(CCNC=C5C(=O)CC(c6ccccc6)CC5=O)CC4)cccc3C2=O)C(=O)N1 (stereo not drawn) [Compound 87] | ++ (30<survival rate (%)≤60)
20 | O=C1CCC(N2Cc3c(NC(=O)CCC(=O)N4CCN(CCNC=C5C(=O)CC(c6ccccc6)CC5=O)CC4)cccc3C2=O)C(=O)N1 (stereo not drawn) [Compound 91] | ++ (30<survival rate (%)≤60)
21 | O=C1CCC(N2Cc3c(NC(=O)c4ccc(CN5CCN(CCNC=C6C(=O)CC(c7ccccc7)CC6=O)CC5)cc4)cccc3C2=O)C(=O)N1 (stereo not drawn) [Compound 92] | + (60≤survival rate (%)<90)
22 | O=C(/C=C\CN1CCN(CCNC=C2C(=O)CC(c3ccccc3)CC2=O)CC1)Nc1cccc2c1CN(C1CCC(=O)NC1=O)C2=O (stereo not drawn) [Compound 93] | ++ (30<survival rate (%)≤60)
23 | O=C1CCC(N2C(=O)c3cccc(NC(=O)c4ccc(CN5CCN(CCNC=C6C(=O)CC(c7ccccc7)CC6=O)CC5)cc4)c3C2=O)C(=O)N1 (stereo not drawn) [Compound 94] | +++ (survival rate (%)≤30)
24 | Nc1cccc2c1CN(C1CCC(=O)N(C(=O)N3CCN(CCNC=C4C(=O)CC(c5ccccc5)CC4=O)CC3)C1=O)C2=O (stereo not drawn) [Compound 100] | +++ (survival rate (%)≤30)

tested on: A549; assay: Inhibition of tumor cell proliferation, CellTiter-Glo, A549; assay type: cell-based; conditions: Homo sapiens, A549; compound concentration 50 μM, 72 hours; read-out: Inhibitory activity against proliferation (cell survival rate) A549
Method in brief: as §1

Row | Compound | cell survival rate (% of control) at 50 µM
25 | O=C1CCC(N2Cc3c(NC=C4C(=O)CC(c5nccs5)CC4=O)cccc3C2=O)C(=O)N1 (stereo not drawn) [Compound 111] | 60 to 90%

same assay, conditions: compound concentration 50 μM, 72 hours

Row | Compound | Inhibitory activity against proliferation (cell survival rate) A549
26 | O=C1CCC(N2C(=O)c3cccc(NC(=O)OCOC(=O)/C=C/C(=O)N4CCN(CCNC=C5C(=O)CC(c6ccccc6)CC5=O)CC4)c3C2=O)C(=O)N1 (stereo not drawn) [Compound 86] | +++ (survival rate (%)≤30)
27 | O=C1CCC(N2Cc3c(NC(=O)OCCOCCN4CCN(CCNC=C5C(=O)CC(c6ccccc6)CC5=O)CC4)cccc3C2=O)C(=O)N1 (stereo not drawn) [Compound 87] | ++ (30<survival rate (%)≤60)
28 | O=C1CCC(N2Cc3c(NC(=O)CCC(=O)N4CCN(CCNC=C5C(=O)CC(c6ccccc6)CC5=O)CC4)cccc3C2=O)C(=O)N1 (stereo not drawn) [Compound 91] | ++ (30<survival rate (%)≤60)
29 | O=C1CCC(N2Cc3c(NC(=O)c4ccc(CN5CCN(CCNC=C6C(=O)CC(c7ccccc7)CC6=O)CC5)cc4)cccc3C2=O)C(=O)N1 (stereo not drawn) [Compound 92] | + (60≤survival rate (%)<90)
30 | O=C(/C=C\CN1CCN(CCNC=C2C(=O)CC(c3ccccc3)CC2=O)CC1)Nc1cccc2c1CN(C1CCC(=O)NC1=O)C2=O (stereo not drawn) [Compound 93] | ++ (30<survival rate (%)≤60)
31 | O=C1CCC(N2C(=O)c3cccc(NC(=O)c4ccc(CN5CCN(CCNC=C6C(=O)CC(c7ccccc7)CC6=O)CC5)cc4)c3C2=O)C(=O)N1 (stereo not drawn) [Compound 94] | +++ (survival rate (%)≤30)
32 | Nc1cccc2c1CN(C1CCC(=O)N(C(=O)N3CCN(CCNC=C4C(=O)CC(c5ccccc5)CC4=O)CC3)C1=O)C2=O (stereo not drawn) [Compound 100] | +++ (survival rate (%)≤30)

tested on: MDA-MB-453; assay: Inhibition of tumor cell proliferation, CellTiter-Glo, MDA-MB-453; assay type: cell-based; conditions: Homo sapiens, MDA-MB-453; compound concentration 50 μM, 72 hours; read-out: Inhibitory activity against proliferation (cell survival rate) MDA-MB-453
Method in brief: as §1

Row | Compound | cell survival rate (%) at 50 µM
33 | O=C1CCC(N2Cc3c(NC=C4C(=O)CC(c5nccs5)CC4=O)cccc3C2=O)C(=O)N1 (stereo not drawn) [Compound 111] | ≤ 30%

same assay, conditions: compound concentration 50 μM, 72 hours

Row | Compound | Inhibitory activity against proliferation (cell survival rate) MDA-MB-453
34 | O=C1CCC(N2C(=O)c3cccc(NC(=O)OCOC(=O)/C=C/C(=O)N4CCN(CCNC=C5C(=O)CC(c6ccccc6)CC5=O)CC4)c3C2=O)C(=O)N1 (stereo not drawn) [Compound 86] | +++ (survival rate (%)≤30)
35 | O=C1CCC(N2Cc3c(NC(=O)OCCOCCN4CCN(CCNC=C5C(=O)CC(c6ccccc6)CC5=O)CC4)cccc3C2=O)C(=O)N1 (stereo not drawn) [Compound 87] | +++ (survival rate (%)≤30)
36 | O=C1CCC(N2Cc3c(NC(=O)CCC(=O)N4CCN(CCNC=C5C(=O)CC(c6ccccc6)CC5=O)CC4)cccc3C2=O)C(=O)N1 (stereo not drawn) [Compound 91] | ++ (30<survival rate (%)≤60)
37 | O=C1CCC(N2Cc3c(NC(=O)c4ccc(CN5CCN(CCNC=C6C(=O)CC(c7ccccc7)CC6=O)CC5)cc4)cccc3C2=O)C(=O)N1 (stereo not drawn) [Compound 92] | ++ (30<survival rate (%)≤60)
38 | O=C(/C=C\CN1CCN(CCNC=C2C(=O)CC(c3ccccc3)CC2=O)CC1)Nc1cccc2c1CN(C1CCC(=O)NC1=O)C2=O (stereo not drawn) [Compound 93] | ++ (30<survival rate (%)≤60)
39 | O=C1CCC(N2C(=O)c3cccc(NC(=O)c4ccc(CN5CCN(CCNC=C6C(=O)CC(c7ccccc7)CC6=O)CC5)cc4)c3C2=O)C(=O)N1 (stereo not drawn) [Compound 94] | +++ (survival rate (%)≤30)
40 | Nc1cccc2c1CN(C1CCC(=O)N(C(=O)N3CCN(CCNC=C4C(=O)CC(c5ccccc5)CC4=O)CC3)C1=O)C2=O (stereo not drawn) [Compound 100] | ++ (30<survival rate (%)≤60)

tested on: BxPC-3; assay: Inhibition of tumor cell proliferation, CellTiter-Glo, BxPC-3; assay type: cell-based; conditions: Homo sapiens, BXPC-3; compound concentration 50 μM, 72 hours; read-out: Inhibitory activity against proliferation (cell survival rate) BxPC-3
Method in brief: as §1

Row | Compound | cell survival rate (%) at 50 µM
41 | O=C1CCC(N2Cc3c(NC=C4C(=O)CC(c5nccs5)CC4=O)cccc3C2=O)C(=O)N1 (stereo not drawn) [Compound 111] | 60 to 90%

same assay, conditions: compound concentration 50 μM, 72 hours

Row | Compound | Inhibitory activity against proliferation (cell survival rate) BxPC-3
42 | O=C1CCC(N2C(=O)c3cccc(NC(=O)OCOC(=O)/C=C/C(=O)N4CCN(CCNC=C5C(=O)CC(c6ccccc6)CC5=O)CC4)c3C2=O)C(=O)N1 (stereo not drawn) [Compound 86] | ++ (30<survival rate (%)≤60)
43 | O=C1CCC(N2Cc3c(NC(=O)OCCOCCN4CCN(CCNC=C5C(=O)CC(c6ccccc6)CC5=O)CC4)cccc3C2=O)C(=O)N1 (stereo not drawn) [Compound 87] | + (60≤survival rate (%)<90)
44 | O=C1CCC(N2Cc3c(NC(=O)CCC(=O)N4CCN(CCNC=C5C(=O)CC(c6ccccc6)CC5=O)CC4)cccc3C2=O)C(=O)N1 (stereo not drawn) [Compound 91] | + (60≤survival rate (%)<90)
45 | O=C1CCC(N2Cc3c(NC(=O)c4ccc(CN5CCN(CCNC=C6C(=O)CC(c7ccccc7)CC6=O)CC5)cc4)cccc3C2=O)C(=O)N1 (stereo not drawn) [Compound 92] | + (60≤survival rate (%)<90)
46 | O=C(/C=C\CN1CCN(CCNC=C2C(=O)CC(c3ccccc3)CC2=O)CC1)Nc1cccc2c1CN(C1CCC(=O)NC1=O)C2=O (stereo not drawn) [Compound 93] | + (60≤survival rate (%)<90)
47 | O=C1CCC(N2C(=O)c3cccc(NC(=O)c4ccc(CN5CCN(CCNC=C6C(=O)CC(c7ccccc7)CC6=O)CC5)cc4)c3C2=O)C(=O)N1 (stereo not drawn) [Compound 94] | + (60≤survival rate (%)<90)
48 | Nc1cccc2c1CN(C1CCC(=O)N(C(=O)N3CCN(CCNC=C4C(=O)CC(c5ccccc5)CC4=O)CC3)C1=O)C2=O (stereo not drawn) [Compound 100] | ++ (30<survival rate (%)≤60)
